Experimental data reported in US20260034111A1, “NOVEL HETEROCYCLES AS sPLA2-X INHIBITORS” (Cayman Chemical Company Incorporated, priority 2022, published 2026).
Structures can show the parent of a compound that is named as a salt.

Key:
Assay type in all cases: biochemical
[1] = molecular target: T1, sPLA2-X protein (Homo sapiens, UniProt O15496); assay: sPLA2-X enzyme inhibition assay (thio-PC substrate, DTNB detection, absorbance 410 nm); design: made in house; host or cells: E. coli; conditions: class symbols; read-out: sPLA2 Type X Inhibition (IC50; nM)
T1 sequence (O15496 43-165): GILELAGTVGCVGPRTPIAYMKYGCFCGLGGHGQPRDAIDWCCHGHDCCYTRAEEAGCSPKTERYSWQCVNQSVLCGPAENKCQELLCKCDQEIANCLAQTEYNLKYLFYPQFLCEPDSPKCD
Excerpt: (§1) Screening Compounds for Inhibition of sPLA2-X, sPLA2-V, and sPLA2-IIA Enzyme Activity
(§2) These sPLA2 enzymes hydrolyze the sn-2 acyl chains of glycerophospholipids, resulting in the release of a free fatty acid and a lysophospholipid. In the case of the thio-PC substrate, this enzymatic hydrolysis results in a free sulfhydryl group remaining on the lysophospholipid. This free sulfhydryl reacts with DTNB to produce the chromogenic product 5-nitro-2-thiobenzoic acid (TNB) which can be quantitated by absorbance at 410 nm. The amount of TNB produced reflects the hydrolytic activity of the enzyme.
(§3) The recombinant human sPLA2 groups IIA, V, and X enzymes were expressed in E. coli and purified to >90% purity by standard biochemical methods.
(§4) Procedure of Enzyme Inhibition for sPLA2-X • 1. […] Dilute the test compounds in 100% DMSO by half-log steps in a 96-well dilution plate using columns 1-11 (one compound per row). Column 12 contains DMSO alone with no compound. • 3. Prepare a 3.5 mM thio-PC substrate solution by drying down 7.2 mg of stock thio-PC in ethanol under a gentle stream of N2 gas. When dry, add 4 mL assay buffer (25 mM Tris, pH7.4; 100 mM KCl; 10 mM CaCl2; 0.1% Triton X-100) and warm in a 37° C. water bath for 20 minutes with intermittent vortexing. • 4. Prepare an “enzyme containing” reaction mix with the following components: 20.4 mL assay buffer; 2 mL DTNB (20 mM in 800 mM Tris, pH8.0); and 11.8 mg recombinant human sPLA2-X enzyme (>95% pure) diluted to a total of 0.8 mL assay buffer. • 5. Prepare a “no enzyme” reaction mix with the following components: 477 μL assay buffer and 45 μL DTNB. • 6. Dispense 58 μL “no enzyme” reaction mix into each of 8 wells (columns 23 and 24, rows M-P). • 7. Dispense 58 μL “enzyme containing” reaction mix into all remaining wells on the plate. • 8. From the 96-well compound dilution plate, add 2 μL from each well for each compound to each of 4 wells with “enzyme containing” reaction mix. Columns 23 and 24 on the assay plate will contain only DMSO (vehicle control). […] After compound addition, mix the contents of each well to ensure that the DMSO is evenly distributed in the well. • 9. Cover the plate and incubate in the dark at room temperature for 15 minutes. • 10. Add 10 μL of thio-PC substrate to all wells. The final concentration of thio-PC in the reactions is 0.5 mM. • 11. Cover the plate and incubate in the dark at room temperature for 30 minutes. • 12. Measure the absorbance of all wells at 410 nm. • 13. Determine the mean absorbance of the “no enzyme” wells. Subtract this value from the absorbance values determined for all other wells (these are now background corrected data). • 14. […] Procedure of Enzyme Inhibition for sPLA2-V • 1. […] Dilute the test compounds in 100% DMSO by half-log steps in a 96-well dilution plate using columns 1-11. Column 12 contains DMSO alone with no compound. • 3. Prepare a 3.5 mM thio-PC substrate solution by drying down 7.2 mg of stock thio-PC in ethanol under a gentle stream of N2 gas. When dry, add 4 mL assay buffer (25 mM Tris, pH7.4; 100 mM KCl; 10 mM CaCl2; 0.1% Triton X-100) and warm in a 37° C. water bath for 20 minutes with intermittent vortexing. • 4. Prepare an “enzyme containing” reaction mix with the following components: 20.4 mL assay buffer; 2 mL DTNB (20 mM in 800 mM Tris, pH8.0); and 12 mg recombinant human sPLA2-V enzyme (>95% pure) diluted to a total of 0.8 mL assay buffer. • 5. Prepare a “no enzyme” reaction mix with the following components: 477 μL assay buffer and […]. • 6. Dispense 58 μL “no enzyme” reaction mix into each of 8 wells (columns 23 and 24, rows M-P). • 7. Dispense 58 μL “enzyme containing” reaction mix into all remaining wells on the plate. • 8. From the 96-well compound dilution plate, add 2 μL from each well for each compound to each of 4 wells with “enzyme containing” reaction mix. Columns 23 and 24 on the assay plate will contain only DMSO (vehicle control).

[2] = molecular target: T2, recombinant human sPLA2-V enzyme (Homo sapiens, UniProt P39877); assay: sPLA2-V enzyme inhibition assay (thio-PC substrate, DTNB detection, absorbance 410 nm); conditions: class symbols; read-out: sPLA2 Type V Inhibition (IC50; nM)
T2 construct: made in house; host or cells: E. coli
T2 sequence (P39877 21-138): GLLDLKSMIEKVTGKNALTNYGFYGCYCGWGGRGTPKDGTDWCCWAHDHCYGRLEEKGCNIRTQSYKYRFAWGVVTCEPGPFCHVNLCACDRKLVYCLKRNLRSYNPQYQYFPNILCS
Excerpt: as §1, §2, §3, §4

[3] = molecular target: T3, recombinant human sPLA2-IIA enzyme (Homo sapiens, UniProt P14555); assay: sPLA2-IIA enzyme inhibition assay (thio-PC substrate, DTNB detection, absorbance 410 nm); conditions: class symbols; read-out: sPLA2 Type IIa Inhibition (IC50; nM)
T3 construct: made in house; host or cells: E. coli
T3 sequence (P14555 21-144): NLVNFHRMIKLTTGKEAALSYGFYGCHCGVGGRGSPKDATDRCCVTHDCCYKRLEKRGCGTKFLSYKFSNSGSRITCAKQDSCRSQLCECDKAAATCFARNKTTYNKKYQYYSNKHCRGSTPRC
Excerpt: as §1, §2, §3, §4

Compound | IC50 [1] | IC50 [2] | IC50 [3]
NC(=O)c1sc2ccc(OC(F)(F)F)cc2c1-c1ccc2c(c1)C(CC(=O)O)CO2 (stereo not drawn) [Compound 7, 2-(5-(2-carbamoyl-5-(trifluoromethoxy)benzo[b]thiophen-3-yl)-2,3-dihydrobenzofuran-3-yl)acetic acid] | > 200 nM | > 5000 nM | > 1000 nM
NC(=O)c1cc2ccc(OC(F)(F)F)cc2n1-c1ccc2c(c1)OCC2CC(=O)O (stereo not drawn) [Compound 9, 2-(6-(2-carbamoyl-6-(trifluoromethoxy)-1H-indol-1-yl)-2,3-dihydrobenzofuran-3-yl)acetic acid] | > 200 nM | > 5000 nM | > 1000 nM
CC(C)(C)OC(=O)N1CC(CC(=O)O)c2cc(-n3c(C(N)=O)cc4ccc(OC(F)(F)F)cc43)ccc21 (stereo not drawn) [Compound 11, 2-(1-(tert-butoxycarbonyl)-5-(2-carbamoyl-6-(trifluoromethoxy)-1H-indol-1-yl)indolin-3-yl)acetic acid] | 50 to 200 nM | > 5000 nM | > 1000 nM
NC(=O)c1sc2ccccc2c1-c1cccc(CCC(=O)O)c1 [Compound 13, 3-(3-(2-carbamoylbenzo[b]thiophen-3-yl)phenyl)propanoic acid] | > 200 nM | > 5000 nM | > 1000 nM
CNC(=O)c1cc2ccc(OC(F)(F)F)cc2n1-c1cccc(CCC(=O)O)c1 [Compound 14, 3-(3-(2-(methylcarbamoyl)-6-(trifluoromethoxy)-1H-indol-1-yl)phenyl)propanoic acid] | > 200 nM | > 5000 nM | > 1000 nM
NC(=O)c1oc2ccc(OC(F)(F)F)cc2c1-c1cccc(CCC(=O)O)c1 [Compound 17, 3-(3-(2-carbamoyl-5-(trifluoromethoxy)benzofuran-3-yl)phenyl)propanoic acid] | > 200 nM | > 5000 nM | > 1000 nM
NC(=O)c1cc2ccc(OC(F)(F)F)cc2n1-c1cccc(CC2(C(=O)O)CC2)c1 [Compound 19, 1-(3-(2-carbamoyl-6-(trifluoromethoxy)-1H-indol-1-yl)benzyl)cyclopropane-1-carboxylic acid] | > 200 nM | > 5000 nM | > 1000 nM
NC(=O)c1cc2ccc(OC(F)(F)F)cc2n1-c1ccc2occ(C(=O)O)c2c1 [Compound 20, 5-(2-carbamoyl-6-(trifluoromethoxy)-1H-indol-1-yl)benzofuran-3-carboxylic acid] | > 200 nM | > 5000 nM | > 1000 nM
NC(=O)c1cc2ccccc2n1-c1cccc(CCC(=O)O)c1 [Compound 21, 3-(3-(2-carbamoyl-1H-indol-1-yl)phenyl)propanoic acid] | > 200 nM | > 5000 nM | > 1000 nM
NC(=O)c1cc2ccc(OC(F)(F)F)cc2n1-c1cccc(C[C@@H](N)C(=O)O)c1 [Compound 23, (R)-2-amino-3-(3-(2-carbamoyl-6-(trifluoromethoxy)-1H-indol-1-yl)phenyl)propanoic acid TFA salt] | > 200 nM | > 5000 nM | > 1000 nM

Continued, values first:

IC50 [1] | IC50 [2] | IC50 [3] | Compound
50 to 200 nM | > 5000 nM | > 1000 nM | NC(=O)c1cc2ccc(OC(F)(F)F)cc2n1-c1ccc2c(c1)C(CC(=O)O)CO2 (stereo not drawn) [Compound 1, 2-(5-(2-carbamoyl-6-(trifluoromethoxy)-1H-indol-1-yl)-2,3-dihydrobenzofuran-3-yl)acetic acid]
< 20 nM | 500 to 1500 nM | 200 to 500 nM | CC(C)(Sc1cccc(-n2c(C(N)=O)cc3ccc(OC(F)(F)F)cc32)c1)C(=O)O [Compound 2, 2-((3-(2-carbamoyl-6-(trifluoromethoxy)-1H-indol-1-yl)phenyl)thio)-2-methylpropanoic acid]
< 20 nM | 1500 to 5000 nM | 500 to 1000 nM | CC(C)(Cc1cccc(-n2c(C(N)=O)cc3ccc(OC(F)(F)F)cc32)c1)C(=O)O [Compound 3, 3-(3-(2-carbamoyl-6-(trifluoromethoxy)-1H-indol-1-yl)phenyl)-2,2-dimethylpropanoic acid]
< 20 nM | < 500 nM | 200 to 500 nM | NC(=O)c1cc2ccc(OC(F)(F)F)cc2n1-c1cccc(SC2(C(=O)O)CCC2)c1 [Compound 4, 1-((3-(2-carbamoyl-6-(trifluoromethoxy)-1H-indol-1-yl)phenyl)thio)cyclobutane-1-carboxylic acid]
> 200 nM | > 5000 nM | > 1000 nM | C/C(=C\C(=O)O)c1cccc(-n2c(C(N)=O)cc3ccc(OC(F)(F)F)cc32)n1 [Compound 6, (E)-3-(6-(2-carbamoyl-6-(trifluoromethoxy)-1H-indol-1-yl)pyridin-2-yl)but-2-enoic acid]
50 to 200 nM | > 5000 nM | > 1000 nM | CC(C)(Cc1cccc(-n2c(C(N)=O)cc3ccc(OC(F)(F)F)cc32)n1)C(=O)O [Compound 8, 3-(6-(2-carbamoyl-6-(trifluoromethoxy)-1H-indole-1-yl)pyridin-2-yl)-2,2-dimethylpropanoic acid]
20 to 50 nM | 500 to 1500 nM | 500 to 1000 nM | NC(=O)c1cc2ccc(OC(F)(F)F)cc2n1-c1cccc(CC2(C(=O)O)CCC2)c1 [Compound 10, 1-(3-(2-carbamoyl-6-(trifluoromethoxy)-1H-indol-1-yl)benzyl)cyclobutane-1-carboxylic acid]
50 to 200 nM | > 5000 nM | > 1000 nM | NC(=O)c1cc2ccc(OC(F)(F)F)cc2n1-c1ccc2occ(CC(=O)O)c2c1 [Compound 12, 2-(5-(2-carbamoyl-6-(trifluoromethoxy)-1H-indol-1-yl)benzofuran-3-yl)acetic acid]
50 to 200 nM | > 5000 nM | > 1000 nM | NC(=O)c1cc2ccc(OC(F)(F)F)cc2n1-c1ccc2oc(C(=O)O)cc2c1 [Compound 16, 5-(2-carbamoyl-6-(trifluoromethoxy)-1H-indol-1-yl)benzofuran-2-carboxylic acid]
< 20 nM | 1500 to 5000 nM | > 1000 nM | NC(=O)c1cc2ccc(OC(F)(F)F)cc2n1-c1cccc(CCC(=O)O)n1 [Compound 18, 3-(6-(2-carbamoyl-6-(trifluoromethoxy)-1H-indol-1-yl)pyridin-2-yl)propanoic acid]
< 20 nM | 1500 to 5000 nM | > 1000 nM | CC(C)(CC(=O)O)c1cccc(-n2c(C(N)=O)cc3ccc(OC(F)(F)F)cc32)c1 [Compound 22, 3-(3-(2-carbamoyl-6-(trifluoromethoxy)-1H-indol-1-yl)phenyl)-3-methylbutanoic acid]
